From ChEMBL document CHEMBL1141841, “Biotransformation of the trichoderma metabolite 6-n-pentyl-2H-pyran-2-one (6PAP) by selected fungal isolates” (J Nat Prod, 1999)
Calls of active or inactive are those of the source. The calls are words filed in the database; no cut-off is given here.

Each molecule was assayed on Botrytis cinerea (assay: Antimicrobial activity against Botrytis cinerea by spore germination assay).
Assay type: functional, organism-based
For `CC(O)CCCc1cccc(=O)o1` (stereo not given), the Activity was “inactive”.
With `CCCCCc1cccc(=O)o1` the Activity was “Active”.
In the case of `O=c1cccc(CCCCCO)o1`, the Activity is reported as “inactive”.
In the case of `O=C(O)CCCCc1cccc(=O)o1`, the Activity is reported as “inactive”.
In the case of `O=C(O)CCc1cccc(=O)o1`, the Activity is reported as “inactive”.
